The results in this text go back to a melting point compilation (Tetko et al.; mined from patent text by program, amines drawn as free bases though some values may be those of a salt).

Bounds are passed on as bounds.

By melting point is commonly meant the temperature of the solid-liquid transition. As for `CS(=O)(=O)c1ccc(-c2[nH]c3ccccc3c2-c2ccc(F)cc2)cc1`, the melting point fell in the range of 224 to 226 °C.

The compound `CC(C)(C)N1CN(c2ccccc2)C2=NN=CC2=C1N` had a melting point of 174 to 176 °C. Consider `O=[N+]([O-])c1cc(Br)cc(Br)c1`, for which the melting point lay in the range of 102 to 104 °C.

Consider `CCOc1ccc(C(c2ccc(C(C)CC)cc2)C(CC)[N+](=O)[O-])cc1` (configuration not stated), for which the melting point fell in the range of 89 to 90 °C. In the case of `O=C(NC(=O)c1ccccc1Cl)Nc1cc(C(F)(F)F)c(Cl)cc1Br`, the melting point is 185 °C. As to `Cc1nc(Sc2ccc(N)cc2)nc(C)c1Cl`, the melting point was in the range of 160 to 161 °C. `O=S(=O)(N[C@H](CO)[C@@H](c1cc(F)cc(F)c1)C(F)(F)F)c1ccc(Cl)s1` displayed a melting point of 126 °C. Compound `CCCCCCCCCCCCCCCCCC(=O)NCC(C)(C)COC(=O)CCc1cc(C(C)(C)C)c(O)c(C(C)(C)C)c1` came in with a melting point of 44 °C.

`O=C1NC(C(=O)NCCO[N+](=O)[O-])C(c2cccs2)O1` (configuration not stated) had a melting point of 101 to 103 °C. As to `CCC(Cc1cccc(NC(C)=O)c1)C(=O)O` (configuration not stated), the melting point was in the range of 131 to 132 °C. For the compound `Fc1cc2c(c(OCCNCCCc3c[nH]c4ccc(F)cc34)c1)OCCC2`, the melting point lay within 137 to 138 °C. As for `O=C(O)c1cc(-c2ccc3c(c2)CCO3)nn(CC2CC2)c1=O`, the figure is 160 to 165 °C; as for `COCc1noc(-c2ncn3c2c(=O)n(C(C)C)c2ccccc23)n1`, 195 to 196 °C.

Compound `O=C(Nc1cc2nc(-c3ccc(C(=O)C45CC6CC(CC(C6)C4)C5)cc3)[nH]c2cn1)c1ccccn1` returned a melting point of 305 °C. `COc1ccc(C(CC(=O)O)CC(=O)O)cc1` displayed a melting point of 147 to 150 °C.

For the compound `Cc1ccc(-c2c(C(=O)NCc3cc(C(F)(F)F)cc(C(F)(F)F)c3)n(CCCCO)c(=O)c3cnccc23)cc1`, the melting point was in the range of 128 to 131 °C. As for `COc1nc(NC(=O)NS(=O)(=O)c2ccccc2OCC#N)nn1C`, the melting point lay in the range of 205 to 207 °C. As for `Cc1nn(CC(C)(C)O)c(-c2ccc(F)cc2)c1-c1ccc2c(c1)NC(=O)CO2`, the figure is 166 to 167 °C; as for `O=C1c2ccccc2-n2cncc2[C@@H]2CCN12`, 195 to 197 °C; as for `O=Cc1ccc(C(=O)NCC(F)(F)F)cc1`, 83 to 84 °C. For `COc1ccc(Cn2ncnc2CN2C(=O)c3ccccc3C2=O)cc1`, the melting point was in the range of 167 to 172 °C. In turn, `COc1ccc(C(=O)N2c3ccccc3C(N3CCSc4ccccc43)CC2C)cc1OC` (configuration not stated) gave a melting point of 113 to 114 °C. With `CC(C)(C)C1=CC(O)(C(F)(F)F)C=C(C(C)(C)C)C1=O`, the melting point fell in the range of 93 to 94 °C.

Compound `CCOC(=O)c1ccc(Cl)nc1NCc1ccc(OC)c(Cl)c1` displayed a melting point of 108 to 112 °C. As for `O=C(O)c1cc(Br)cc2c1NCCS2`, the melting point lay in the range of 205 to 206 °C. Next, `CCCCc1oc2ccccc2c1/C=N/OCCCOc1ccc(CC(=O)O)cc1`: 181 to 182 °C; `Cc1cc(Nc2ccc(C(=O)O)cc2)c2[nH]ncc2n1`: 238 to 241 °C. As for `O=C(O)c1ccc(-c2ccc(C(=O)O)cn2)nc1`, the figure is > 400 °C. As for `Cc1nnc(CNC(=O)[C@H](Cc2ccccc2)NC(=O)OCc2ccccc2)n1-c1ccc(Cl)cc1C(=O)c1ccccc1`, the figure is 84 to 88 °C. The compound `CC(C)C[C@@H](C=NNC(N)=O)NC(=O)[C@H](Cc1c[nH]cn1)NC(=O)C(CCCCc1ccccc1)Cc1cccc2ccccc12` (some centres not stated) gave a melting point of 108 to 114 °C. Compound `CNC(=O)Nc1cc(NC(=O)/C=C/c2ccc(C(C)(C)C)cc2)ccc1Cl` came in with a melting point of 120 to 122 °C. On to `FC(F)(F)CN1CCC(CNOCc2ccccc2)CC1`, for which the melting point was in the range of 93.8 to 95.1 °C.

`NC(=O)Cc1c(N)cc(Br)cc1OCc1ccccc1`: the melting point was 185 °C. `O=S(=O)(c1ccccc1)n1cc(-c2ccnc(N[C@H]3CC[C@H](O)CC3)n2)c2ccccc21` yielded a melting point of 132 to 133 °C. Next, `CCc1cc2c(cc1C(CC)SCC(=O)O)OCO2` (configuration not stated): 88 to 89 °C. Take `C#CC(C)(C)N1CCN(C(=O)C(C)(C)C)CC1`: the melting point was 106 to 109 °C. Next, `COc1cc(/C=C/C(=O)Nc2ccccc2C(=O)O)ccc1OC1CCCC1`: 96 to 98 °C; `CC1CC(=O)NN=C1c1ccc2c(ccc(=O)n2C)c1` (configuration not stated): 248 to 251 °C. `COC(=O)c1ncn(C(c2ccccc2)c2ccccc2)c1C(=O)OC` registered a melting point of 93 °C. Consider `CC1=C(c2ccc(CC(C)NCC(O)c3cccc(Cl)c3)cc2)CCC(=O)N1` (configuration not stated), for which the melting point was 103 to 106 °C. Next, `COC(=O)C1CCC2(C)C(=CC(=O)C3C2CCC2(C)C(C(=O)OC)CCC32)C1` (configuration not stated): 167 to 169 °C; `CC(Oc1ncc(F)c(N)n1)c1ccc(F)cc1` (configuration not stated): 96 to 98 °C. In turn, `CCCCc1ccc(C(=O)NCCC(C)(C)C)cc1` came in with a melting point of 70 to 71 °C. For `COc1ccc(C2=C(/C=C/C(=O)Oc3ccc([N+](=O)[O-])cc3)CCc3cc(OC)ccc32)cc1`, the melting point was 151 to 152 °C.

With `COc1cccc(-c2nn(Cc3ccccc3)c3ncnc(Cl)c23)c1`, the melting point lay in the range of 99 to 101 °C. In turn, `CCN1C(=O)C(C)(C)C(=O)N(C)c2cc(CN(CCn3ccc4oc(C)cc4c3=O)Cc3cnccc3Cl)ccc21` returned a melting point of 114 to 118 °C.

As to `COC(=O)C=C1NCC(c2ccccc2)OC1=O` (configuration not stated), the melting point lay within 125 to 126 °C. For `COC(=O)C(c1ccc(Cl)cc1)c1c(Cl)cc(-n2ncc(=O)[nH]c2=O)cc1Cl` (configuration not stated), the melting point came to 121 °C. The compound `O=C(N1CCN(Cc2ccccc2)CC1)N1CC(Oc2ccc(Br)cc2)C1` had a melting point of 133 to 135 °C. As for `Cc1ccc(S(=O)(=O)N(F)C(C)(C)C)cc1`, the figure is 59 to 62.5 °C; as for `O=c1[nH]c2cc(F)c([N+](=O)[O-])c(Br)c2[nH]c1=O`, 320 to 325 °C; as for `O=C(Cn1cnc2ccccc21)Nc1ccc(-n2nc(C3CC3)cc2C2CC2)cc1`, 230 to 235 °C. Compound `CCN(CC)C(=O)/C=C(\C)c1ccc(OC(C)c2ccccc2)c2oc(C(C)=O)cc12` (configuration not stated) registered a melting point of 70.8 to 73 °C. Take `CC(=O)OCC1OC(OC(C)=O)C(N=[N+]=[N-])C([N+](=O)[O-])C1OC(C)=O` (configuration not stated): the melting point was in the range of 118 to 120 °C.

With `CCOC(=O)OC1=C(c2c(C)cc(C)cc2C)C(=O)N(N(C)C)C12CCN(N(C)C)CC2`, the melting point is 105 °C. The compound `Cn1c(=O)c2c(Cl)nccc2n(C)c1=O` returned a melting point of 220 °C. `COc1ccc2nc(NC(=O)C(CC3CCCC3)c3ccc(S(=O)(=O)NCc4ccccc4)cc3)sc2n1` (configuration not stated) showed a melting point of 237 to 240 °C. `CCCCc1nc(C(C)(O)CC)c(C#N)[nH]1` (configuration not stated) returned a melting point of 139 to 142 °C. Next, `OCC(CO)CCOc1ccccc1`: 71 to 73 °C; `CCOc1ccc(-c2nc(OC)ccc2N2CCC(=O)N(c3ccc(OC)cc3)CC2)cc1C`: 136 to 138 °C.

Regarding `CC(=O)NC1CCC(=O)N2CCCC(C(=O)NC(CC(=O)OC(C)(C)C)C(=O)COC(=O)c3c(Cl)cccc3Cl)N2C1=O` (configuration not stated), the melting point lay within 80 to 125 °C.

For the compound `N#CSc1c(C(F)(F)F)nn(-c2c(Cl)cc(C(F)(F)F)cc2Cl)c1N`, the melting point lay in the range of 49 to 50 °C. `Nc1ccc(C(=O)c2ccncc2)cc1N`: the melting point lay in the range of 210 to 214 °C. As for `Cc1ccc(-c2c(NS(=O)(=O)c3ccc(C(C)(C)C)cc3)nc(NCCOC3CCCCO3)nc2OCCO)cc1` (configuration not stated), the figure is 113 to 116 °C; as for `O=[N+]([O-])c1cccc2c1COCO2`, 76 to 77 °C. Take `CN1C(=O)C(C#N)(c2ccc(OCC(O)CNC(C)(C)C)cc2)Sc2ccccc21` (configuration not stated): the melting point was determined as 160 °C.

As to `O=C(O)CCCCCCCCCCCCCCCCCCC(=O)n1nnc2ccccc21`, the melting point was found to be 112 °C. Turning to `Cn1c(C(F)(F)F)cc(=O)n(-c2ccc(Cl)cc2F)c1=O`, the melting point lay in the range of 114 to 116 °C. `Cc1noc(NS(=O)(=O)c2ccccc2-c2ccc(Cn3c(=O)oc4ccccc43)cc2)c1C` displayed a melting point of 182 to 183 °C. The compound `CN1Cc2c(-c3noc(CNCc4ccccc4)n3)ncn2-c2ccccc2C1=O` had a melting point of 88 to 92 °C. As to `Cc1c(N(C)C)ccc(Br)c1N=C1NCCN1`, the melting point was 157 to 158 °C. With `COc1ccc(/C=C/S(=O)(=O)Nc2ccc(F)cc2)cc1`, the melting point lay within 115 to 117 °C. Next, `OC1(C=Cc2ccc(-c3cccnc3)cc2)CN2CCC1CC2` (configuration not stated): 195 to 198 °C; `COc1ccnc(C(=O)N[C@H]2COC(=O)[C@H](Cc3ccccc3)[C@@H](OC(=O)C(C)C)[C@H](C)OC2=O)c1OCc1ccccc1`: 169 to 170 °C; `O=C(NCc1ccc(F)cc1)c1ccnc(N2CCN(C(F)(F)c3ccc(C(F)F)cc3)C2=O)c1`: 173 to 175 °C. `CC(=O)c1ccc(OC(CCCCC(=O)O)c2ccccc2)cc1O` (configuration not stated) gave a melting point of 91 to 93 °C. Next, `COC(=O)C1=C2c3sccc3SC(Cl)CN2CC(c2ccccc2)=C1` (configuration not stated): 192 to 196 °C. Compound `COc1cc2c(c(OC(C)=O)c1)C1CCC3(C)C(OC(=O)C(F)(F)F)CCC3C1CC2` (configuration not stated) came in with a melting point of 137 to 138 °C.

As for `COCC1CN(c2ccc(C3CCN(C(=O)c4ccc(C(F)(F)F)cc4)CC3)cc2)C(=O)O1` (racemic), the melting point was in the range of 164 to 166 °C. Regarding `Cc1ccc(-c2cccc(/C=C/C(=O)Nc3ccc(CN4CCCCC4CO)cc3)c2)cc1` (configuration not stated), the melting point lay in the range of 137 to 139 °C. As for `CC(=O)Nc1c(C)cccc1CCC(=O)O`, the melting point came to 110 °C. On to `COC(COc1ccc(C(=O)C(C)(C)O)cc1)OC`, for which the melting point was 52 to 53 °C.

Take `Cc1ccc(C(O[Si](C)(C)C(C)(C)C)C(=O)NCCO)cc1` (configuration not stated): the melting point lay within 69 to 70 °C.

Turning to `CC[C@@]12C[C@H](O)[C@](O)(c3ccccc3)C[C@H]1CCc1cc(O)ccc12`, the melting point is 191 to 192 °C. `Cc1cc(=O)n2cccc(SC(=O)N(C)C)c2n1` yielded a melting point of 165 to 167 °C. As for `CN1c2ccccc2Sc2cc(C=CC3(C=Cc4ccc5c(c4)Sc4ccccc4N5C)C=CC(c4ccccc4)=CC3)ccc21` (configuration not stated), the figure is 380 °C; as for `O=C(O)CCc1oc(-n2ccnc2-c2ccccc2)nc1-c1ccc(Cl)cc1`, 179 to 180 °C.
